The subject of assay [1] is NCI-H226 cells. The assay is described as follows: Viability assay in NCI-H226 (Yap-dependent) cells, CyQUANT. Type of assay: cell-based. The note with it: Homo sapiens, 96 hour incubation. As to the method: The ability of YAP-TEAD inhibitors to inhibit tumor cell growth was evaluated using two different cell lines: NCI-H226, which is a YAP dependent cell line, and SW620 cells, where YAP and TAZ were knocked out using CRISPR to generate a YAP independent cell line.
For the assay, cells were treated in duplicates with the test compounds in a 10-point dose, 1:3 dilution steps, with the top concentration starting at 30 μM (final concentration in assay). After a 96 hour incubation at 37° C., 95% rH, and 5% CO2, a cell-permeant DNA-binding dye that stains only healthy cells (CyQUANT®, Promega) was added to the cells, allowing the quantification of cell viability.
Cell Media: The NCI-H226 cells were cultured in the following media: RPMI 1640, +10% FBS, +1× GlutaMAX, +10 mM HEPES, +0.5% Pen/Strep. The SW620-KO cells were cultured in the following media: DMEM/F-12, +10% FBS, +1× GlutaMAX, +10 mM HEPES, +0.5% Pen/Strep.
(§1) Reagents: The reagents used are listed below:
Cell culture: The cells were examined using an inverted microscope to check for health, cell density, etc. To dissociate adherent cells, the monolayer of cells was washed once with pre-warmed PBS. After removing the PBS, 3 ml pre-warmed Accutase was added to a F75 flask, dispersed evenly and the flask was allowed to sit in incubator for ˜4-5 minutes.
(§2) When a single cell suspension was obtained, 7 ml of prewarmed growth media was added and resuspended with the cells. The cell suspension was transferred to a sterile 15 ml conical centrifuge tube, and spun for 5 min at 300×g, RT. The supernatant was discarded and the pellet was resuspended in 10 ml of pre-warmed growth media.
(§3) The total cell count was determined, and 20 μl of the desired cell number was added to each well of a 384 well plate using a Multidrop Combi. The plates were then incubated for 24 hours at 37° C., 95% rH, and 5% CO2.
(§4) Compound treatment: 24 hours after seeding, the cells were treated with compounds.
(§5) A 1:333 dilution of compounds, diluted in DMSO, was made to get a final concentration of 0.3% DMSO per well. To transfer the compounds to the assay plate, 120 nl was shot from Labcyte low dead volume plates to the cell plates containing 20 μl media/well with the ECHO 555 liquid handling system.
(§6) After treatment, the cells were fed with 20 μl fresh pre-warmed assay media using a Multidrop combi.
The assay plates were then incubated for 96 h at 37° C., 95% rH, and 5% CO2.
96h after treatment 30 μl of CyQuant® reagent was added to the assay plates using a Multidrop combi in the dark. The plates were then incubated for 1 hour at 37° C., 95% rH and 5% CO2. Thereafter, the assay plates were removed from the incubator and allowed to equilibrate to RT for 30 min in the dark without lid. Finally, they were measured using an EnVision microplate reader with a FITC bottom read program.
Experimental data in the Viability assay of the compounds shown in Table 1 are shown in Table 3 below and classified in the following groups: […]

For assay [2], the system named is YAP-TEAD interaction. Briefly: SK-HEP-1 reporter assay (8x TEAD responsive elements driving NanoLuc luciferase). The format is cell-based. The note with it: Homo sapiens, SK-HEP1; SK-HEP-1 TEAD-NanoLuc reporter cells, 24 hour incubation, luciferase readout. As to the method: To identify inhibitors of YAP-TEAD interaction, 8× TEAD responsive elements driving the NanoLuc® luciferase gene were stably integrated into SK-HEP-1 cells (ECACC #: 91091816).
For the assay, cells were treated in duplicates with the test compounds in a 10-point dose, with the top concentration starting at 30 μM (final concentration in assay). After a 24 hour incubation at 37° C., 95% rH, and 5% CO2, a luciferase substrate/lysis reagent mix (NanoGlo™, Promega) was added to the cells, allowing the quantification of cellular luciferase activity.
Cell Media: The cells were cultured in the following media: MEM, +10% FBS, +1× GlutaMAX, +1 mM Sodium-Pyruvate, +100 μM Non-essential amino acids, +0.1 mg/ml Hygromycin. The media used for the assay was: MEM (w/o Phenol Red), +10% FBS, +1× GlutaMAX, +1 mM Sodium-Pyruvate, +100 μM Non-essential amino acids, +0.5% Pen/Strep
as §1
Cell culture: The cells were examined using an inverted microscope to check for health and cell density. To dissociate adherent cells, the monolayer of cells was washed once with pre-warmed PBS. After removing the PBS, 3 ml pre-warmed Accutase® was added to a F75 flask, dispersed evenly and the flask was allowed to sit in incubator for ˜4-5 minutes.
as §2, §3, §4, §5, §6
The assay plates were then incubated for another 24 h at 37° C., 95% rH, and 5% CO2.
Luciferase readout: 24 h after treatment, the plates were taken out of the incubator and were allowed to equilibrate to RT. 30 μl of NanoGlo® reagent was added to the plates in the dark. Plates were shaken for 20 min on a Teleshake (˜1500 rpm) in the dark. The luminescence was then measured using an EnVision microplate reader. The IC50 values were generated using Genedata Screener®.
Experimental data in SK-HEP-1 reporter assay of the compounds shown in Table 1 are shown in Table 2 below and classified in the following groups: […]

`O=C(O)c1ccc2c(c1)c1cc(Cc3cccc(F)c3)ccc1n2-c1ccc(C(F)(F)F)cc1` [Compound 2, 6-[(3-fluorophenyl)methyl]-9-[4-(trifluoromethyl)phenyl]-9H-carbazole-3-carboxylic acid]: the IC50 in assay [1] was in the range of 0.1 to 1 µM; in assay [2] it was 100 to 1000 nM. The like results for `O=C(O)c1ccc2c(c1)c1cc(Cc3ccccc3F)ccc1n2-c1ccc(C(F)(F)F)cc1` [Compound 3, 6-[(2-fluorophenyl)methyl]-9-[4-(trifluoromethyl)phenyl]-9H-carbazole-3-carboxylic acid] were, in that order, 1 to 10 µM and 100 to 1000 nM.

In the case of `O=C(O)c1ccc2c(c1)c1cc(Cc3ccc(F)cc3)ccc1n2-c1ccc(C(F)(F)F)cc1` [Compound 4, 6-[(4-fluorophenyl)methyl]-9-[4-(trifluoromethyl)phenyl]-9H-carbazole-3-carboxylic acid], the IC50 in assay [1] is greater than 10 µM; in assay [2], 100 to 1000 nM.

With `O=C(O)c1ccc2c(c1)c1ccncc1n2-c1ccc(C(F)(F)F)cc1` [Compound 5, 9-[4-(trifluoromethyl)phenyl]-9H-pyrido[3,4-b]indole-6-carboxylic acid], the values for the IC50 in assay [1] and in assay [2] were 0.1 to 1 µM and 100 to 1000 nM, respectively. For `O=C(O)c1ccc2c(c1)c1cnccc1n2-c1ccc(C(F)(F)F)cc1` [Compound 7, 5-[4-(trifluoromethyl)phenyl]-5H-pyrido[4,3-b]indole-8-carboxylic acid] the same measures were greater than 10 µM and greater than 1000 nM. With `N#Cc1ccc2c(c1)c1cc(C(=O)O)ccc1n2-c1ccc(C(F)(F)F)cc1` [Compound 12, 6-cyano-9-[4-(trifluoromethyl)phenyl]-9H-carbazole-3-carboxylic acid], the values for the IC50 in assay [1] and in assay [2] were 1 to 10 µM and 10 to 100 nM, respectively.

`O=C(O)c1ccc2c(c1)c1cc(OC(F)(F)F)ccc1n2-c1ccc(C(F)(F)F)cc1` [Compound 15, 6-(trifluoromethoxy)-9-[4-(trifluoromethyl)phenyl]-9H-carbazole-3-carboxylic acid]: the IC50 in assay [1] was 0.001 to 0.1 µM; in assay [2], 10 to 100 nM. In the case of `O=C(NC1CC1)c1cc2c3cccnc3n(-c3ccc(C(F)(F)F)cc3)c2cn1` [Compound 36, N-cyclopropyl-8-[4-(trifluoromethyl)phenyl]-5,8,10-triazatricyclo[7.4.0.0^2,^7]trideca-1(9),2(7),3,5,10,12-hexaene-4-carboxamide], the values for the IC50 in assay [1] and in assay [2] were 0.1 to 1 µM and 100 to 1000 nM, respectively. As to `Cc1ccc2c(c1)c1cc(C(=O)NC3CC3)ccc1n2-c1ccc(C(F)(F)F)cc1` [Compound 37, N-cyclopropyl-6-methyl-9-[4-(trifluoromethyl)phenyl]-9H-carbazole-3-carboxamide], the IC50 in assay [1] was 0.001 to 0.1 µM; in assay [2], 10 to 100 nM. For the compound `Cc1ccc2c(c1)c1cc(C(=O)NCCO)ccc1n2-c1ccc(C(F)(F)F)cc1` [Compound 38, N-(2-hydroxyethyl)-6-methyl-9-[4-(trifluoromethyl)phenyl]-9H-carbazole-3-carboxamide], the IC50 in assay [1] fell in the range of 0.001 to 0.1 µM; in assay [2], 10 to 100 nM. `Cc1ccc2c(c1)c1cc(C(=O)NC(C)CO)ccc1n2-c1ccc(C(F)(F)F)cc1` (stereo not drawn) [Compound 39, N-(1-hydroxypropan-2-yl)-6-methyl-9-[4-(trifluoromethyl)phenyl]-9H-carbazole-3-carboxamide]: the values for the IC50 in assay [1] and in assay [2] were 0.001 to 0.1 µM and 10 to 100 nM, respectively. With `Cc1ccc2c(c1)c1cc(C(=O)NCC(C)O)ccc1n2-c1ccc(C(F)(F)F)cc1` (stereo not drawn) [Compound 40, N-(2-hydroxypropyl)-6-methyl-9-[4-(trifluoromethyl)phenyl]-9H-carbazole-3-carboxamide], the IC50 in assay [1] lay within 0.001 to 0.1 µM; in assay [2] it was 10 to 100 nM. As for `Cc1ccc2c(c1)c1cc(C(=O)NC(CO)C(C)C)ccc1n2-c1ccc(C(F)(F)F)cc1` (stereo not drawn) [Compound 41, N-(1-hydroxy-3-methylbutan-2-yl)-6-methyl-9-[4-(trifluoromethyl)phenyl]-9H-carbazole-3-carboxamide], the IC50 lay within 0.1 to 1 µM in assay [1] and 100 to 1000 nM in assay [2].

As to `CCC(CO)NC(=O)c1ccc2c(c1)c1cc(C)ccc1n2-c1ccc(C(F)(F)F)cc1` (stereo not drawn) [Compound 42], the IC50 in assay [1] was 0.001 to 0.1 µM; in assay [2], 10 to 100 nM. For `Cc1ccc2c(c1)c1cc(C(=O)NCC(C)(C)O)ccc1n2-c1ccc(C(F)(F)F)cc1` [Compound 43, N-(2-hydroxy-2-methylpropyl)-6-methyl-9-[4-(trifluoromethyl)phenyl]-9H-carbazole-3-carboxamide] the same measures were 0.1 to 1 µM and 100 to 1000 nM. Take `Cc1ccc2c(c1)c1cc(C(=O)NCCn3ccnc3)ccc1n2-c1ccc(C(F)(F)F)cc1` [Compound 44, 6-Methyl-9-(4-trifluoromethyl-phenyl)-9H-carbazole-3-carboxylic acid (2-imidazol-1-yl-ethyl)-amide]: the IC50 in assay [1] lay in the range of 0.1 to 1 µM; in assay [2], 100 to 1000 nM. `Cc1ccc2c(c1)c1cc(C(=O)NCc3nccn3C)ccc1n2-c1ccc(C(F)(F)F)cc1` [Compound 45]: the figures for the IC50 in assay [1] and in assay [2] were 0.1 to 1 µM and 100 to 1000 nM, respectively. In the case of `Cc1ccc2c(c1)c1cc(C(=O)N[C@](C)(CO)c3ccccc3)ccc1n2-c1ccc(C(F)(F)F)cc1` [Compound 46, N-[(2S)-1-hydroxy-2-phenylpropan-2-yl]-6-methyl-9-[4-(trifluoromethyl)phenyl]-9H-carbazole-3-carboxamide], the IC50 in assay [1] lay in the range of 0.1 to 1 µM; in assay [2], 100 to 1000 nM. For `CCc1ccc2c(c1)c1cc(C(=O)O)ccc1n2-c1ccc(C(F)(F)F)cc1` [Compound 47, 6-ethyl-9-[4-(trifluoromethyl)phenyl]-9H-carbazole-3-carboxylic acid] the same measures were 0.001 to 0.1 µM and 1 to 10 nM.

As for `Cc1ccc2c(c1)c1cc(C(N)=O)ccc1n2-c1ccc(C(F)(F)F)cc1` [Compound 48, 6-methyl-9-[4-(trifluoromethyl)phenyl]-9H-carbazole-3-carboxamide], the IC50 was in the range of 0.1 to 1 µM in assay [1] and 10 to 100 nM in assay [2]. Regarding `Cc1ccc2c(c1)c1cc(C(=O)N3CCC(O)C3)ccc1n2-c1ccc(C(F)(F)F)cc1` (stereo not drawn) [Compound 49, 1-{6-methyl-9-[4-(trifluoromethyl)phenyl]-9H-carbazole-3-carbonyl}pyrrolidin-3-ol], the IC50 in assay [1] lay in the range of 0.1 to 1 µM; in assay [2], 100 to 1000 nM. For `Cc1ccc2c(c1)c1cc(C(=O)N3CCCC(O)C3)ccc1n2-c1ccc(C(F)(F)F)cc1` (stereo not drawn) [Compound 50, 1-{6-methyl-9-[4-(trifluoromethyl)phenyl]-9H-carbazole-3-carbonyl}piperidin-3-ol], the IC50 in assay [1] fell in the range of 0.1 to 1 µM; in assay [2] it was 100 to 1000 nM.

For the compound `Cc1cc2c3cc(C(N)=O)ccc3n(-c3ccc(C(F)(F)F)cc3)c2cc1C` [Compound 76, 6,7-dimethyl-9-[4-(trifluoromethyl)phenyl]-9H-carbazole-3-carboxamide], in assay [2], the IC50 is 10 to 100 nM.

The values above are taken from patent US20230278958A1 (Merck Patent GmbH, priority 2020, published 2023).
